According to ChEMBL document CHEMBL5726747, “Substituted pyrido[3,4-d]pyrimidines and pyrido[4,3-d]pyrimidines as p70S6K inhibitors” (2019):

Key:
[1] = target: Ribosomal protein S6 kinase beta-1 (Homo sapiens, UniProt P23443, T412E); test: p70S6K Enzyme Assay: p70S6K inhibitor compounds were diluted and plated in 96 well plates. A reaction mixture including the following components were then added to the compound plate to initiate the enzyme reaction: p70S6K (3 nM, T412E mutant, Millipore) was mixed with 24 μM ATP in an assay buffer containing 100 mM Hepes (pH 7.5), 5 mM MgCl2, 1 mM DTT, 0.015% Brij and 1 μM of the substrate peptide FITC-AHA-[…]-OH (derived from the S6 ribosomal protein sequence, FITC=fluorescein isothiocyanate, AHA=6-aminohexanoic acid). The reaction was incubated for 90 min at 25° C., before the addition of 10 mM EDTA to stop the reaction. The proportion of substrate and product (phosphorylated) peptide was analyzed on a Caliper Life Sciences Lab Chip 3000, using a pressure of −1.4 psi, and upstream and downstream voltages of −3000 and −700, respectively. Product peaks were resolved before substrate peaks on the resulting chromatograms. To assess the inhibitory potential of the compounds, IC50 values were determined, as shown above.
[2] = target: RAC-alpha serine/threonine-protein kinase (Homo sapiens, UniProt P31749); test: AKT/PKB Kinase Assay: In order to measure AKT inhibition in the Caliper Life Sciences LC3000, a TTP Mosquito liquid handling instrument was used to place 125 nl of the appropriate concentration of inhibitor in 100% DMSO (for a dose response curve calculation) into each well of a 384-well plate. To this reaction, the following components were added to a final volume of 12.5 μl: 0.1 ng/μl His-AKT (Full Length) (Invitrogen, Part # P2999, Lot #641228C); 160 μM ATP (Fluka, 02055); 1 mM DTT (Sigma, D0632); 1 mM MgCl2 (Sigma, M1028); 1 μM substrate peptide (sequence FITC-AHA-[…]-NH2), synthesized by Tufts Peptide Synthesis service; 100 mM HEPES pH 7.5 (Calbiochem, 391338); and 0.015% Brij-35 (Sigma, B4184).The reaction was incubated for 90 min at 25° C., and then stopped by the addition of 70 μl of Stop buffer (100 mM HEPES pH 7.5, 0.015% Brij-35, 10 mM EDTA (Sigma, E7889)). The plate was read on a Caliper LC 3000 in an Off-Chip mobility shift assay format, using the following parameters for a 12-sipper chip: screening pressure −2.3 psi, upstream voltage −500, and downstream voltage −3000. These conditions cause unphosphorylated substrate and phosphorylated product peptide to resolve as separate peaks allowing direct measurement of percentage of conversion of substrate to product. The percent conversion was plotted against concentration of inhibitor to produce a sigmoidal dose response curve, from which an IC50 was calculated.
RAC-alpha serine/threonine-protein kinase, sequence (P31749 whole entry): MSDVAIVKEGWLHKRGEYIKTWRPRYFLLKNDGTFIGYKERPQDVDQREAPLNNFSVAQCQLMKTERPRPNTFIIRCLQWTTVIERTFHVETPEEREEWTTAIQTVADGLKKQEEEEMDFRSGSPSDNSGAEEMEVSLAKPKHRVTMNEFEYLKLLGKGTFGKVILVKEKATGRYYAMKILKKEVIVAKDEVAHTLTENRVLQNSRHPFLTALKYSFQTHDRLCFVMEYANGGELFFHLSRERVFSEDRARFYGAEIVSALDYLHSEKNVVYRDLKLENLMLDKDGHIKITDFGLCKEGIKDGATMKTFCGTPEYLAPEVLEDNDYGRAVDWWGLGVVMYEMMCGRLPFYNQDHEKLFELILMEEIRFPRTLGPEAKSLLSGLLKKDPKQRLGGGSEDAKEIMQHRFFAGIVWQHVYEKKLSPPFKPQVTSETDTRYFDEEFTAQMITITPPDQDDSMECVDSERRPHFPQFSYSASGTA

Ribosomal protein S6 kinase beta-1, sequence (P23443 whole entry T412E): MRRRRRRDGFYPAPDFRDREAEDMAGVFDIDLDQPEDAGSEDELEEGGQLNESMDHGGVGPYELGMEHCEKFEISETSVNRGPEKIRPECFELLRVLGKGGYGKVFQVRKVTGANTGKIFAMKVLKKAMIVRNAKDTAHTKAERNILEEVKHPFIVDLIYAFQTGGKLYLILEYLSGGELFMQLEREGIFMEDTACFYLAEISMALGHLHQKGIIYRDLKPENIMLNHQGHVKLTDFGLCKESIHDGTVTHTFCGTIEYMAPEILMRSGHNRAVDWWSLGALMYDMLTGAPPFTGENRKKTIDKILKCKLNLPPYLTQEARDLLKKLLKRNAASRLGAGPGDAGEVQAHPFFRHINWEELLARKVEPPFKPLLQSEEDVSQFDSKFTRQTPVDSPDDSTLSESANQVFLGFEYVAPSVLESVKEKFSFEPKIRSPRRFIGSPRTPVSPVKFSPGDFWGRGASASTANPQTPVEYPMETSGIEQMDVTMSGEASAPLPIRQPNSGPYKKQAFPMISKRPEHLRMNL

SMILES | IC50 [1] | IC50 [2]
NC(=O)c1ccnc2c(N[C@H](CN3CCC3)c3ccc(F)c(C(F)F)c3)ncnc12 | < 25 nM | < 25 nM
NC(=O)c1ccnc2c(N[C@H](CN3CCC3)c3ccc(F)c(C(F)(F)F)c3)ncnc12 | < 25 nM | < 25 nM
N#Cc1ccc([C@@H](CN2CCC2)Nc2ncnc3c(C(N)=O)ccnc23)cc1Cl | < 25 nM | < 25 nM

Results, then the compound that gave them:

IC50 [1] | IC50 [2] | SMILES
< 25 nM | < 25 nM | CNC[C@@H](Nc1ncnc2c(C(N)=O)ccnc12)c1ccc(F)c(Cl)c1
< 25 nM | – | CN(C)C[C@@H](Nc1ncnc2c(C(N)=O)ccnc12)c1ccc(Cl)c(F)c1
< 25 nM | – | CCNC[C@@H](Nc1ncnc2c(C(N)=O)ccnc12)c1ccc(F)c(Cl)c1
< 25 nM | – | CCNC[C@@H](Nc1ncnc2c(C(N)=O)ccnc12)c1ccc(F)c(Br)c1
